One data set deals with GABA-A receptor. As to the kind of experiment: 35S-TBPS binding assay (GABAA receptor binding ability test). Also on record: species or system Sprague-Dawley rat. To be noted: rat cerebral cortex cell membrane, 5 μM GABA, 2 nM 35S-TBPS; read-out: 35S-TBPS bindng test: IC50 on inhibiting the TBPS binding activity. An outline of the steps:
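Rat (male Sprague-Dawley) cortical membranes in PBS were preincubated 5 min at 25° C with compound (from 1 μM, 3-fold, 8 points, 1% DMSO), then 5 μM GABA 5 min, then 2 nM ^35S-TBPS for 20 h at 4° C. Filter-bound counts gave % inhibition against DMSO and 10 μM P026-2 controls; IC50 by 4-parameter fit.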

A short description of data set [1]: Pharmacokinetic assay in Balb/c mice (plasma and brain tissue). Conditions: mouse, po, 5 mg/kg p.o., male Balb/c mice; for AUC(0-t): read-out: Area under curve AUC0-t; for AUC(0-inf): read-out: Area under curve AUC0-∞; for half-life: read-out: Half-life t1/2 (converted); for MRT: read-out: Mean residence time MRT; for Tmax: read-out: Peak time tmax; for Cmax: read-out: Plasma concentration Cmax. It counts as in vivo. The method, then:
Balb/c mice were used as test animals. The pharmacokinetic behavior in mice (plasma and brain tissue) of the compounds of Examples 2, 3, 5, 6, 9, 13, 59, 60, 61, 63, 71-74, 81, 103, 130, 134, 135, 137, 138, 140, 141, 143, 145 and 146 orally administered at a dose of 5 mg/kg was studied.
Each group had 24 male Balb/c mice. After an overnight fast, Balb/c mice were administered p.o. with the test compound at an administration dose of 5 mg/kg and an administration volume of 10 mL/kg.
0.2 ml of blood was taken from the heart before administration and at 0, 0.5, 1, 2, 4, 6, 8 and 24 hours after administration. The samples were stored in EDTA-K2 tubes, and centrifuged for 6 minutes at 4° C., 6000 rpm to separate the plasma. The plasma samples were stored at −80° C. The mice were sacrificed with CO2, and the whole brain tissue was taken out, weighed, placed in a 2 mL centrifuge tube and stored at −80° C.
1) 160 μL of acetonitrile was added to 40 μL of the plasma sample for precipitation, and then the mixture was centrifuged for 5-20 minutes at 3500×g.
2) 90 μL of acetonitrile containing the internal standard (100 ng/mL) was added to 30 μL of the plasma and brain homogenate samples for precipitation, and then the mixture was centrifuged for 8 minutes at 13000 rpm.
3) 70 μL of the treated supernatant was taken and added to 70 μL of water, and mixed by vortex for 10 minutes. 20 μL of the mixture was taken to analyze the concentration of the test compound by LC/MS/MS. LC/MS/MS analysis instrument: AB Sciex API 4000 Qtrap.
• Liquid chromatography condition: Shimadzu LC-20AD pump. • Chromatographic column: Agilent ZORBAX™ XDB-C18 (50×2.1 mm, 3.5 μm) (note: Aglient ZORBAX™ is a kind of column used in the reverse HPLC); • Mobile phase: Eluent A was 0.10% formic acid in water, and Eluent B was acetonitrile. • Flow rate: 0.4 mL/min • Elution time: 0-4.0 minutes, the eluent is as follows:
The main parameters of pharmacokinetics were calculated by WinNonlin 6.1.

One may read the IC50 as the concentration that inhibits the measured activity by half. In general, MRT refers to the average time that molecules of a dose stay in the body. One may read the Tmax as the time at which the peak concentration occurs.

The structures appear in SMILES notation. Where two headings read alike, the source gives them in different places.

For `C[C@@]1(O)CC[C@H]2[C@H](CC[C@@H]3[C@@H]2CC[C@@]2(C)[C@H]3[C@H](C3CC3)C[C@@H]2C(=O)Cn2nc(C#N)cc2C#N)C1` [Example 143, 1-(2-((3R,5R,8R,9R,10S,13S,14S,15S,17S)-15-Cyclopropyl-3-hydroxy-3,13-dimethylhexadecahydro-1H-cyclopenta[a]phenanthren-17-yl)-2-oxoethyl)-1H-pyrazole-3,5-dicarbonitrile], on GABA-A receptor, the 50% inhibitory concentration (IC50) stood at 28.5 nM. Also, in data set [1] (brain tissue), the AUC(0-t) worked out at 8820 ng·h/mL, the AUC(0-inf) worked out at 9220 ng·h/mL, the half-life was 3.95 h and the mean residence time (MRT) was 7.81 h. In data set [1] (brain tissue), the Tmax is 2 h and the Cmax stood at 812 ng/mL. Moreover, in data set [1] (plasma), the AUC(0-t) was found to be 6290 ng·h/mL, the AUC(0-inf) is 6490 ng·h/mL, the half-life is 1.7 h and the mean residence time MRT was 3.08 h. For the same compound, in data set [1] (plasma), the Tmax was 0.5 h and the Cmax stood at 1650 ng/mL.
`C[C@@H]1C[C@H](C(=O)Cn2nc(C#N)cc2C#N)[C@@]2(C)CC[C@H]3[C@@H](CC[C@@H]4C[C@](C)(O)CC[C@@H]43)[C@H]12` [Example 135, 1-(2-((3R,5R,8R,9R,10S,13S,14S,15R,17S)-3-Hydroxy-3,13,15-trimethylhexadecahydro-1H-cyclopenta[a]phenanthren-17-yl)-2-oxoethyl)-1H-pyrazole-3,5-dicarbonitrile]: the IC50 on GABA-A receptor is 4.3 nM. Moreover, in data set [1] (brain tissue), the AUC(0-t) turned out to be 3740 ng·h/mL, the AUC(0-inf) was 4450 ng·h/mL, the half-life is 2.82 h and the MRT was found to be 4.71 h. In data set [1] (brain tissue), the Tmax is 2 h and the Cmax was determined as 724 ng/mL. For the same compound, in data set [1] (plasma), the AUC(0-t) was 4100 ng·h/mL, the AUC(0-inf) worked out at 4110 ng·h/mL, the half-life was 2.06 h and the mean residence time (MRT) came to 4.38 h. Besides, in data set [1] (plasma), the Tmax worked out at 2 h and the Cmax turned out to be 640 ng/mL.
Consider `C[C@@]1(O)CC[C@H]2[C@H](CC[C@@H]3[C@@H]2CC[C@@]2(C)[C@H]3[C@@H]3C[C@@H]3[C@@H]2C(=O)COc2cnc(C(F)(F)F)nc2)C1` [Example 130, 1-((2R,4aS,4bR,6aS,7S,7aS,8aR,8bR,8cR,10aR)-2-Hydroxy-2,6a-dimethyloctadecahydrocyclopropa[4,5]cyclopenta[1,2-a]phenanthren-7-yl)-2-((2-(trifluoromethyl)pyrimidin-5-yl)oxy)ethan-1-one], for which the IC50 on GABA-A receptor amounted to 4.2 nM. Moreover, in data set [1] (brain tissue), the AUC(0-t) worked out at 2310 ng·h/mL, the AUC(0-inf) turned out to be 2630 ng·h/mL, the half-life was 2.49 h and the mean residence time (MRT) is 3.88 h. Also, in data set [1] (brain tissue), the Tmax is 0.5 h and the Cmax stood at 563 ng/mL. In addition, in data set [1] (plasma), the AUC(0-t) turned out to be 1390 ng·h/mL, the AUC(0-inf) is 1560 ng·h/mL, the half-life was 2.21 h and the mean residence time (MRT) came to 3.83 h. In data set [1] (plasma), the time of peak concentration (Tmax) amounted to 0.5 h and the Cmax came to 307 ng/mL.
Regarding `C[C@@]1(O)CC[C@H]2[C@H](CC[C@@H]3[C@@H]2CC[C@@]2(C)[C@H]3[C@@H]3C[C@@H]3[C@@H]2C(=O)Cn2ncnn2)C1` [Example 9, 1-((2R,4aS,4bR,6aS,7S,7aS,8aR,8bR,8cR,10aR)-2-Hydroxy-2,6a-dimethyloctadecahydrocyclopropa[4,5]cyclopenta[1,2-a]phenanthren-7-yl)-2-(2H-tetrazol-2-yl)ethan-1-one], the IC50 at GABA-A receptor was 21.3 nM. For the same compound, in data set [1] (brain tissue), the AUC(0-t) was 677 ng·h/mL, the AUC(0-inf) is 680 ng·h/mL, the half-life was 0.5 h and the mean residence time (MRT) turned out to be 0.9 h. Further, in data set [1] (brain tissue), the Tmax came to 0.5 h and the Cmax amounted to 605 ng/mL. In addition, in data set [1] (plasma), the AUC(0-t) amounted to 775 ng·h/mL, the AUC(0-inf) was 778 ng·h/mL, the half-life was 0.9 h and the mean residence time (MRT) was found to be 1.1 h. Moreover, in data set [1] (plasma), the Tmax was found to be 0.5 h and the Cmax was found to be 664 ng/mL.
As for `C[C@@]1(O)CC[C@H]2[C@H](CC[C@@H]3[C@@H]2CC[C@@]2(C)[C@H]3[C@@H]3C[C@@H]3[C@@H]2C(=O)Cn2nnc3ccc(F)cc32)C1` [Example 93B, 2-(6-Fluoro-1H-benzo[d][1,2,3]triazol-1-yl)-1-((2R,4aS,4bR,6aS,7S,7aS,8aR,8bR,8cR,10aR)-2-hydroxy-2,6a-dimethyloctadecahydrocyclopropa[4,5]cyclopenta[1,2-a]phenanthren-7-yl)ethan-1-one], at GABA-A receptor, the IC50 worked out at 3 nM.
Still for that read-out and setting: to `C[C@@]1(O)CC[C@H]2[C@H](CC[C@@H]3[C@@H]2CC[C@@]2(C)[C@H]3[C@@H]3C[C@@H]3[C@@H]2C(=O)Cn2cc(F)cn2)C1` [Example 46, 2-(4-Fluoro-1H-pyrazol-1-yl)-1-((2R,4aS,4bR,6aS,7S,7aS,8aR,8bR,8cR,10aR)-2-hydroxy-2,6a-dimethyloctadecahydrocyclopropa[4,5]cyclopenta[1,2-a]phenanthren-7-yl)ethan-1-one] belongs 28.7 nM; to `C[C@@]1(O)CC[C@H]2[C@H](CC[C@@H]3[C@@H]2CC[C@@]2(C)[C@H]3[C@@H]3C[C@@H]3[C@@H]2C(=O)Cn2cc(C#N)c(C3CC3)n2)C1` [Example 33, 3-Cyclopropyl-1-(2-((2R,4aS,4bR,6aS,7S,7aS,8aR,8bR,8cR,10aR)-2-hydroxy-2,6a-dimethyloctadecahydrocyclopropa[4,5]cyclopenta[1,2-a]phenanthren-7-yl)-2-oxoethyl)-1H-pyrazole-4-carbonitrile], 18.3 nM.
Same read-out and setting: to `C[C@@H]1C[C@H](C(=O)Cn2ccc(C(F)(F)F)n2)[C@@]2(C)CC[C@H]3[C@@H](CC[C@@H]4C[C@](C)(O)CC[C@@H]43)[C@H]12` [Example 131, 1-((3R,5R,8R,9R,10S,13S,14S,15R,17S)-3-Hydroxy-3,13,15-trimethylhexadecahydro-1H-cyclopenta[a]phenanthren-17-yl)-2-(3-(trifluoromethyl)-1H-pyrazol-1-yl)ethan-1-one] belongs 8 nM.
Same read-out and setting: to `COc1ccc2c(c1)nnn2CC(=O)[C@H]1[C@H]2C[C@H]2[C@H]2[C@@H]3CC[C@@H]4C[C@](C)(O)CC[C@@H]4[C@H]3CC[C@@]21C` [Example 54B, 1-((2R,4aS,4bR,6aS,7S,7aS,8aR,8bR,8cR,10aR)-2-Hydroxy-2,6a-dimethyloctadecahydrocyclopropa[4,5]cyclopenta[1,2-a]phenanthren-7-yl)-2-(5-methoxy-1H-benzo[d][1,2,3]triazol-1-yl)ethan-1-one] belongs 11.8 nM; to `COc1ccc2nn(CC(=O)[C@H]3[C@H]4C[C@H]4[C@H]4[C@@H]5CC[C@@H]6C[C@](C)(O)CC[C@@H]6[C@H]5CC[C@@]43C)nc2c1` [Example 53, 1-((2R,4aS,4bR,6aS,7S,7aS,8aR,8bR,8cR,10aR)-2-Hydroxy-2,6a-dimethyloctadecahydrocyclopropa[4,5]cyclopenta[1,2-a]phenanthren-7-yl)-2-(5-methoxy-2H-benzo[d][1,2,3]triazol-2-yl)ethan-1-one], 12.3 nM.
